These molecules were tested against T1, human PAH with the R408W mutation (A375 R408W cells) (Homo sapiens, UniProt P00439, R408W) (assay: Cell Based Phenylalanine Flux Assay). Conditions: A375 R408W cells; 24 hrs with compound, then 20 μM sepiapterin and 800 μM 13C9,15N-Phenylalanine for 4 hours; 13C-Tyrosine by LC-MS; average where tested multiple times.
T1 construct: expressed in transfected cells
T1 sequence (P00439 1-452 R408W): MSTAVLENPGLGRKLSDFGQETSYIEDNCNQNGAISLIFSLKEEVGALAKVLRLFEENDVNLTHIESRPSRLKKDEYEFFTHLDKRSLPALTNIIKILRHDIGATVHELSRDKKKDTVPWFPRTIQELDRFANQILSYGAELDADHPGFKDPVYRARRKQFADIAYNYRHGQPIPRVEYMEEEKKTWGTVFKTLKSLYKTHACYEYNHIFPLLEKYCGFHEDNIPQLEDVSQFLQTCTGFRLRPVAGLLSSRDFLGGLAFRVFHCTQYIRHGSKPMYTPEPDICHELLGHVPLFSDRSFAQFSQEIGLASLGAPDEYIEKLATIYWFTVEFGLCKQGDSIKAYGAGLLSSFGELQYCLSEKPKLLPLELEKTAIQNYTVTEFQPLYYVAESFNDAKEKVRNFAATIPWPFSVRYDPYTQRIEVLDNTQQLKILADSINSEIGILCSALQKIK
Method in brief: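 Puromycin-selected A375 line, lentiviral hPAH R408W; cmpd 24 h, 37 °C, 5% CO2, 0.5% DMSO; then 20 μM sepiapterin + 800 μM 13C9,15N-Phe, 4 h; media extracted in 80% MeCN; 13C-Tyr by LC-MS; AC50 from 10-pt curves.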
An AC50 of 500 to 1000 nM was found for `CC(C)(O)c1nc(Cl)c(C(=O)N2CCc3[nH]cnc3[C@H]2c2nc3cc(F)ccc3o2)o1` [Example 129, (S)-(4-chloro-2-(2-hydroxypropan-2-yl)oxazol-5-yl)(4-(5-fluorobenzo[d]oxazol-2-yl)-6,7-dihydro-1H-imidazo[4,5-c]pyridin-5(4H)-yl)methanone] in this work. An AC50 of 1000 to 5000 nM was found for `O=C(c1ccnn1C(F)F)N1CCc2[nH]cnc2[C@@H]1c1nc2c(F)ccc(F)c2o1` [Example 488, (R)-(4-(4,7-difluorobenzo[d]oxazol-2-yl)-6,7-dihydro-1H-imidazo[4,5-c]pyridin-5(4H)-yl)(1-(difluoromethyl)-1H-pyrazol-5-yl)methanone] in this work. For `O=C(c1ocnc1C(F)F)N1CCc2[nH]cnc2[C@H]1c1nc2c(F)ccc(F)c2o1` [Example 373, (S)-(4-(4,7-difluorobenzo[d]oxazol-2-yl)-6,7-dihydro-1H-imidazo[4,5-c]pyridin-5(4H)-yl)(4-(difluoromethyl)oxazol-5-yl)methanone], the AC50 was ≤ 500 nM. An AC50 of 1000 to 5000 nM was found for `Cn1cc(-c2ccc3c(C(=O)N4CCc5[nH]cnc5[C@@H]4c4nc5c(F)cccc5o4)cnn3c2)cn1` [Example 542, (R)-(4-(4-fluorobenzo[d]oxazol-2-yl)-6,7-dihydro-1H-imidazo[4,5-c]pyridin-5(4H)-yl)(6-(1-methyl-1H-pyrazol-4-yl)pyrazolo[1,5-a]pyridin-3-yl)methanone] in this work. An AC50 of 1000 to 5000 nM was found for `Cn1nc(Cl)cc1C(=O)N1CCc2[nH]cnc2[C@@H]1c1nc2cc(F)ccc2o1` [Example 128, (R)-(3-chloro-1-methyl-1H-pyrazol-5-yl)(4-(5-fluorobenzo[d]oxazol-2-yl)-6,7-dihydro-1H-imidazo[4,5-c]pyridin-5(4H)-yl)methanone] in this work. An AC50 of 1000 to 5000 nM was found for `COc1ccc2oc([C@H]3c4nc[nH]c4CCN3C(=O)c3ccnn3C(F)F)nc2c1` [Example 552, (R)-(1-(difluoromethyl)-1H-pyrazol-5-yl)(4-(5-methoxybenzo[d]oxazol-2-yl)-6,7-dihydro-1H-imidazo[4,5-c]pyridin-5(4H)-yl)methanone] in this work. For `O=C(c1nnc(-c2ncccc2F)o1)N1CCc2[nH]cnc2[C@H]1c1nc2cccc(F)c2o1` [Example 868, (S)-(4-(7-fluorobenzo[d]oxazol-2-yl)-6,7-dihydro-1H-imidazo[4,5-c]pyridin-5(4H)-yl)(5-(3-fluoropyridin-2-yl)-1,3,4-oxadiazol-2-yl)methanone], the AC50 was ≤ 500 nM. An AC50 of 500 to 1000 nM was found for `O=C(c1ccnn1-c1ccccn1)N1CCc2[nH]cnc2[C@H]1c1nc2cccc(F)c2o1` [Example 729, (S)-(4-(7-fluorobenzo[d]oxazol-2-yl)-6,7-dihydro-1H-imidazo[4,5-c]pyridin-5(4H)-yl)(1-(pyridin-2-yl)-1H-pyrazol-5-yl)methanone] in this work. An AC50 of 1000 to 5000 nM was found for `O=C(c1ccnn1C(F)F)N1CCc2[nH]cnc2[C@@H]1c1nc2cc(F)ccc2o1` [Example 94, (R)-(1-(difluoromethyl)-1H-pyrazol-5-yl)(4-(5-fluorobenzo[d]oxazol-2-yl)-6,7-dihydro-1H-imidazo[4,5-c]pyridin-5(4H)-yl)methanone] in this work. An AC50 of 1000 to 5000 nM was found for `Cc1ncoc1C(=O)N1Cc2[nH]cnc2[C@@H]1c1nc2ccccc2o1` [Example 942, (R)-(4-(benzo[d]oxazol-2-yl)-4,6-dihydropyrrolo[3,4-d]imidazol-5(1H)-yl)(4-methyloxazol-5-yl)methanone] in this work. An AC50 of 1000 to 5000 nM was found for `O=C(c1nnc(-c2ccc(F)cn2)o1)N1CCc2[nH]cnc2[C@@H]1c1nc2cc(F)ccc2o1` [Example 34, (R)-(4-(5-fluorobenzo[d]oxazol-2-yl)-6,7-dihydro-1H-imidazo[4,5-c]pyridin-5(4H)-yl)(5-(5-fluoropyridin-2-yl)-1,3,4-oxadiazol-2-yl)methanone] in this work. With `O=C(c1nnc(-c2ccccn2)o1)N1CCc2[nH]cnc2[C@H]1c1nc2cccc(C(F)(F)F)c2o1` [Example 838, (S)-(5-(pyridin-2-yl)-1,3,4-oxadiazol-2-yl)(4-(7-(trifluoromethyl)benzo[d]oxazol-2-yl)-6,7-dihydro-1H-imidazo[4,5-c]pyridin-5(4H)-yl)methanone] the AC50 was ≤ 500 nM. For `O=C(c1ocnc1C(F)F)N1CCc2[nH]cnc2[C@@H]1c1nc2c(OC(F)(F)F)cccc2o1` [Example 535, (R)-(4-(difluoromethyl)oxazol-5-yl)(4-(4-(trifluoromethoxy)benzo[d]oxazol-2-yl)-6,7-dihydro-1H-imidazo[4,5-c]pyridin-5(4H)-yl)methanone], the AC50 was ≤ 500 nM. `O=C(c1ccnn1C(F)(F)F)N1CCc2[nH]cnc2[C@H]1c1nc2c(F)cccc2o1` [Example 293, (S)-(4-(4-fluorobenzo[d]oxazol-2-yl)-6,7-dihydro-1H-imidazo[4,5-c]pyridin-5(4H)-yl)(1-(trifluoromethyl)-1H-pyrazol-5-yl)methanone] was tested, and the AC50 was ≤ 500 nM. An AC50 of 1000 to 5000 nM was found for `Cn1cncc1-c1nc(C(F)F)c(C(=O)N2CCc3[nH]cnc3[C@@H]2c2nc3cc(F)ccc3o2)o1` [Example 688, (R)-(4-(difluoromethyl)-2-(1-methyl-1H-imidazol-5-yl)oxazol-5-yl)(4-(5-fluorobenzo[d]oxazol-2-yl)-6,7-dihydro-1H-imidazo[4,5-c]pyridin-5(4H)-yl)methanone] in this work. `CC(C)(O)c1nc(Br)c(C(=O)N2CCc3[nH]cnc3[C@@H]2c2nc3ccc(F)cc3o2)o1` [Example 250, (R)-(4-bromo-2-(2-hydroxypropan-2-yl)oxazol-5-yl)(4-(6-fluorobenzo[d]oxazol-2-yl)-6,7-dihydro-1H-imidazo[4,5-c]pyridin-5(4H)-yl)methanone] was tested, and the AC50 was ≥ 5000 nM. In the case of `CC(C)(O)c1nc(Cl)c(C(=O)N2CCc3[nH]cnc3[C@@H]2c2nc3cc(F)ccc3o2)o1` [Example 130, (R)-(4-chloro-2-(2-hydroxypropan-2-yl)oxazol-5-yl)(4-(5-fluorobenzo[d]oxazol-2-yl)-6,7-dihydro-1H-imidazo[4,5-c]pyridin-5(4H)-yl)methanone], the AC50 is reported as ≥ 5000 nM. An AC50 of 1000 to 5000 nM was found for `COc1cccc2oc([C@@H]3c4nc[nH]c4CCN3C(=O)c3nc(C)nn3C)nc12` [Example 827, (S)-(1,3-dimethyl-1H-1,2,4-triazol-5-yl)(4-(4-methoxybenzo[d]oxazol-2-yl)-6,7-dihydro-1H-imidazo[4,5-c]pyridin-5(4H)-yl)methanone] in this work. An AC50 of 1000 to 5000 nM was found for `O=C(c1cnn2cc(N3CCC4(CC3)CC4)ccc12)N1CCc2[nH]cnc2[C@@H]1c1nc2cccc(F)c2o1` [Example 396, (R)-(6-(6-azaspiro[2.5]octan-6-yl)pyrazolo[1,5-a]pyridin-3-yl)(4-(7-fluorobenzo[d]oxazol-2-yl)-6,7-dihydro-1H-imidazo[4,5-c]pyridin-5(4H)-yl)methanone] in this work.

Same assay, conditions: A375 cells expressing R408W PAH; 24 hrs with compound, then 20 μM sepiapterin and 800 μM 13C9,15N-Phenylalanine for 4 hours; 13C-Tyrosine by LC-MS; average where tested multiple times
An AC50 of 1000 to 5000 nM was found for `CC(C)n1nccc1C(=O)N1CCc2[nH]cnc2C1c1nc2cccc(F)c2o1` (stereo not shown) in this work. An AC50 of 1000 to 5000 nM was found for `O=C(c1cnn2cc(Cl)ccc12)N1CCc2[nH]cnc2C1c1nc2cc(F)ccc2o1` (stereo not shown) in this work. An AC50 of 1000 to 5000 nM was found for `COCc1ncc(C(=O)N2CCc3[nH]cnc3C2c2nc3cc(F)ccc3o2)o1` (stereo not shown) in this work. `CC(C)(O)c1cc(C(=O)N2CCc3[nH]cnc3C2c2nc3ccc(F)cc3o2)no1` (stereo not shown) was tested, and the AC50 was ≥ 5000 nM. An AC50 of 1000 to 5000 nM was found for `O=C(c1cnc(N2CCC(F)CC2)o1)N1CCc2[nH]cnc2C1c1nc2cc(F)ccc2o1` (stereo not shown) in this work. An AC50 of 1000 to 5000 nM was found for `COc1ccc2oc(C3c4nc[nH]c4CCN3C(=O)c3cnco3)nc2c1` (stereo not shown) in this work. An AC50 of 1000 to 5000 nM was found for `O=C(c1cnn(-c2ccccn2)c1Cl)N1CCc2[nH]cnc2C1c1nc2cc(F)ccc2o1` (stereo not shown) in this work. `Cc1ccc2nc(C3c4nc[nH]c4CCN3C(=O)c3nnc(C(C)(C)O)o3)oc2c1` (stereo not shown) was tested, and the AC50 was ≥ 5000 nM. An AC50 of 1000 to 5000 nM was found for `Cc1ccc2oc(C3c4nc[nH]c4CCN3C(=O)c3nnc(C)o3)nc2c1` (stereo not shown) in this work.

— patent US20250171437A1 (Agios Pharmaceuticals,Inc., priority 2022, published 2025)
